Test [1] deals with T1, NEP enzyme (Homo sapiens, UniProt P08473).
T1 construct: purchased R&D Systems, Minneapolis, Minn; 1182-ZN
The test is described as follows: NEP enzyme inhibition assay (fluorogenic peptide substrate). The class given is biochemical. The following applies: values given as lower bounds; * = prodrugs, may not exhibit NEP activity in an in vitro assay; read-out: NEP pIC50 (converted). The method, then: B. In Vitro Assays for the Quantitation of Inhibitor Potencies (IC50) at Human and Rat NEP, and Human ACE
The inhibitory activities of compounds at human and rat NEP and human ACE were determined using in vitro assays as described below.
Recombinant human NEP and recombinant human ACE were obtained commercially (R&D Systems, Minneapolis, Minn., catalog numbers 1182-ZN and 929-ZN, respectively). The fluorogenic peptide substrate Mca-BK2 (Mca-Arg-Pro-Pro-Gly-Phe-Ser-Ala-Phe-Lys(Dnp)-OH; Johnson et al. (2000) Anal. Biochem. 286: 112-118) was used for the human NEP and ACE assays, and Mca-RRL (Mca-DArg-Arg-Leu-(Dnp)-OH; Medeiros et al. (1997) Braz. J. Med. Biol. Res. 30:1157-1162) was used for the rat NEP assay (both from Anaspec, San Jose, Calif.).
The assays were performed in 384-well white opaque plates at room temperature using the respective fluorogenic peptides at a concentration of 10 μM in assay buffer (50 mM Tris/HCl at 25° C., 100 mM NaCl, 0.01% Tween-20, 1 μM Zn, 0.025% BSA). […] The rat NEP enzyme preparation was used at a concentration that yielded quantitative proteolysis of 3 μM of Mca-RRL within 20 minutes at room temperature.
Test compounds were diluted to 12 concentrations from 10 μM to 20 pM in Assay Buffer. Assays were started by adding 25 μL of enzyme to 12.5 μL of test compound at each of the 12 concentrations. Test compounds were allowed to equilibrate with the enzyme for 10 minutes before 12.5 μL of the fluorogenic substrates were added to initiate the reaction. Reactions were terminated by the addition of 10 μL of 3.6% glacial acetic acid after 20 minutes of incubation.
For sulfhydryl-containing test compounds, the test compounds may be diluted in Assay Buffer containing a 400 μM concentration of tris(2-carboxyethyl)phosphine hydrochloride (Thermo Scientific, Rockford, Ill.) (TCEP). The test compounds are then incubated for 40 minutes at room temperature (to allow for dimer cleavage) before adding the enzyme. Test compounds are then allowed to equilibrate with the enzyme for 20 minutes before adding the fluorogenic substrates. Reactions are terminated as above.
Plates were read on a fluorometer with excitation and emission wavelengths set to 320 nm and 405 nm, respectively. Raw data (relative fluorescence units) were normalized to % activity from the average high readings (no inhibition, 100% enzyme activity) and average low readings (full inhibition, highest inhibitor concentration, 0% enzyme activity) using three standard NEP and ACE inhibitors, respectively. Nonlinear regression of the normalized data was performed using a one site competition model (GraphPad Software, Inc., San Diego, Calif.). Data were reported as pIC50 values.

The target in test [2] is T2, human AT1 receptor (Homo sapiens, UniProt P30556).
T2 construct: expressed in transfected cells; host or cells: CHO-K1
T2 sequence (P30556 1-359): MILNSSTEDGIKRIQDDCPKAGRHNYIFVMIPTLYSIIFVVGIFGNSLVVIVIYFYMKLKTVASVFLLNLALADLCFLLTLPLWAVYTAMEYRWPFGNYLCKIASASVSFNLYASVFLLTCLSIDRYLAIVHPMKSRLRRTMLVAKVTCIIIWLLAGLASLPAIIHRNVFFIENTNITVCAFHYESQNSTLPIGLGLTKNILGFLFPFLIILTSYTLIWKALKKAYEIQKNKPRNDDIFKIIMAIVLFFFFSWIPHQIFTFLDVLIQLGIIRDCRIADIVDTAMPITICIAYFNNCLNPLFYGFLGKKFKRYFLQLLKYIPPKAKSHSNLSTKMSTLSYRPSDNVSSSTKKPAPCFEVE
In words: AT1 radioligand binding assay (displacement of [Eu]AngII). The following applies: membranes of CHO-K1 cells expressing cloned human AT1 receptor; values given as lower bounds; read-out: AT1 pKi (converted). The method, then: A. AT1 and AT2 Radioligand Binding Assays
These in vitro assays were used to assess the ability of test compounds to bind to the AT1 and the AT2 receptors.
Membrane Preparation from Cells Expressing Human AT1 or AT2 Receptors
Chinese hamster ovary (CHO-K1) derived cell lines stably expressing the cloned human AT1 or AT2 receptors, respectively, were grown in HAM's-F12 medium supplemented with 10% fetal bovine serum, 10 μg/ml penicillin/streptomycin, and 500 μg/ml geneticin in a 5% CO2 humidified incubator at 37° C. AT2 receptor expressing cells were grown in the additional presence of 100 nM PD123,319 (AT2 antagonist). When cultures reached 80-95% confluence, the cells were washed thoroughly in PBS and lifted with 5 mM EDTA. Cells were pelleted by centrifugation and snap frozen in MeOH-dry ice and stored at −80° C. until further use.
For membrane preparation, cell pellets were resuspended in lysis buffer (25 mM Tris/HCl pH 7.5 at 4° C., 1 mM EDTA, and one tablet of Complete Protease Inhibitor Cocktail Tablets with 2 mM EDTA per 50 mL buffer (Roche cat.#1697498, Roche Molecular Biochemicals, Indianapolis, Ind.)) and homogenized using a tight-fitting Dounce glass homogenizer (10 strokes) on ice. The homogenate was centrifuged at 1000×g, the supernatant was collected and centrifuged at 20,000×g. The final pellet was resuspended in membrane buffer (75 mM Tris/HCl pH 7.5, 12.5 mM MgCl2, 0.3 mM EDTA, 1 mM EGTA, 250 mM sucrose at 4° C.) and homogenized by extrusion through a 20G gauge needle. Protein concentration of the membrane suspension was determined by the method described in Bradford (1976) Anal Biochem. 72:248-54. Membranes were snap frozen in MeOH-dry ice and stored at −80° C. until further use.
Ligand Binding Assay to Determine Compound Affinities for the Human AT1 and AT2 Angiotensin Receptors
Binding assays were performed in 96-well Acrowell filter plates (Pall Inc., cat.#5020) in a total assay volume of 100 μL with 0.2 μg membrane protein for membranes containing the human AT1 receptor, or 2 μg membrane protein for membranes containing the human AT2 receptor in assay buffer (50 mM Tris/HCl pH 7.5 at 20° C., 5 mM MgCl2, 25 μM EDTA, 0.025% BSA). Saturation binding studies for determination of Kd values of the ligand were done using N-terminally Europium-labeled angiotensin-II ([Eu]AngII, H-(Eu-N^1)-Ahx-Asp-Arg-Val-Tyr-Ile-His-Pro-Phe-OH; PerkinElmer, Boston, Mass.) at 8 different concentrations ranging from 0.1 nM to 30 nM. […] Drugs were dissolved to a concentration of 1 mM in DMSO and from there serially diluted into assay buffer. Non-specific binding was determined in the presence of 10 μM unlabeled angiotensin-II. Assays were incubated for 120 minutes in the dark, at room temperature or 37° C., and binding reactions were terminated by rapid filtration through the Acrowell filter plates followed by three washes with 200 μL ice cold wash buffer (50 mM Tris/HCl pH 7.5 at 4° C., 5 mM MgCl2) using a Waters filtration manifold. Plates were tapped dry and incubated with 50 μl DELFIA Enhancement Solution (PerkinElmer cat.#4001-0010) at room temperature for 5 minutes on a shaker. Filter-bound [Eu]AngII was quantitated immediately on a Fusion plate reader (PerkinElmer) using Time Resolved Fluorescence (TRF). Binding data were analyzed by nonlinear regression analysis with the GraphPad Prism Software package (GraphPad Software, Inc., San Diego, Calif.) using the 3-parameter model for one-site competition. The BOTTOM (curve minimum) was fixed to the value for nonspecific binding, as determined in the presence of 10 μM angiotensin II. Ki values for drugs were calculated from observed IC50 values and the Kd value of [Eu]AngII according to the Cheng-Prusoff equation described in Cheng et al. (1973) Biochem Pharmacol. 22 (23):3099-108. Selectivities of test compounds for the AT1 receptor over the AT2 receptor were calculated as the ratio of AT2Ki/AT1Ki. […]

The source of these data is patent US8350027B2, “Dual-acting pyrazole antihypertensive agents” (Theravance, Inc., priority 2009, dated 2013).

T1 sequence (P08473 52-750 limits assumed): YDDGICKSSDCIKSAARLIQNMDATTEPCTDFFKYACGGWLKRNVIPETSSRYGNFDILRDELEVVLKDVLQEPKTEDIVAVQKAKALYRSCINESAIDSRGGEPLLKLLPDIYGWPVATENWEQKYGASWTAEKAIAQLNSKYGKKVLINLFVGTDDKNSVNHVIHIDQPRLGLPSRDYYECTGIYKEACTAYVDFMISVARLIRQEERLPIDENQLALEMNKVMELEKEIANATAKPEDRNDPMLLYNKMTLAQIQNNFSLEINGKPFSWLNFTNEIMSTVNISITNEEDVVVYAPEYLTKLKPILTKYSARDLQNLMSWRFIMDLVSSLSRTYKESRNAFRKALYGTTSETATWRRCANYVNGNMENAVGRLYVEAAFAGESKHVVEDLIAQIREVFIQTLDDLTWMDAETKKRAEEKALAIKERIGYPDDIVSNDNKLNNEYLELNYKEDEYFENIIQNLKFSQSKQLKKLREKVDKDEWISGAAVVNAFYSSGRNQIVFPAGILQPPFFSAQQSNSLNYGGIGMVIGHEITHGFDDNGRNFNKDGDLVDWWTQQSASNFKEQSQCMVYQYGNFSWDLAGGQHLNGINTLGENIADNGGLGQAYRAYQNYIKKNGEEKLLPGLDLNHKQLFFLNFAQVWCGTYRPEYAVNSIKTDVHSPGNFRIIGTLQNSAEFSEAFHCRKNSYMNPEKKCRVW

Consider `CCCc1cc(C(=O)N[C@H](Cc2ccccc2)[C@@H](O)C(=O)O)nn1Cc1ccc(-c2ccccc2-c2nnn[nH]2)cn1` [Example 15-1, (2R,3R)-2-Hydroxy-4-phenyl-3-[(5-propyl-1-{5-[2-(1H-tetrazol-5-yl)phenyl]pyridin-2-ylmethyl}-1H-pyrazole-3-carbonyl)amino]butyric acid], for which, in test [1], the IC50 is at most 1000 nM. For the same molecule, the Ki in test [2] is at most 10 nM.

For `CCCc1cc(C(=O)N[C@H](Cc2ccccc2)[C@@H](O)C(=O)O)nn1Cc1ccc(-c2ccccc2S(=O)(=O)NC(=O)CC)cc1` [Example 7-10, (2R,3R)-2-Hydroxy-4-phenyl-3-{[1-(2′-propionylsulfamoylbiphenyl-4-ylmethyl)-5-propyl-1H-pyrazole-3-carbonyl]amino}butyric acid], in test [1], the IC50 was at most 100 nM. Further, in test [2], the Ki was at most 10 nM.

As for `CCOc1cc(C(=O)N[C@@H](CC(=O)O)Cc2ccccc2)nn1Cc1ccc(-c2ccccc2-c2nnn[nH]2)cc1F` [Example 3-31, (R)-3-({5-Ethoxy-1-[3-fluoro-2′-(1H-tetrazol-5-yl)biphenyl-4-ylmethyl]-1H-pyrazole-3-carbonyl}amino)-4-phenylbutyric acid], in test [1], the IC50 is at most 10000 nM. Also, in test [2], the Ki was at most 100 nM.

With `CCCc1cc(C(=O)N[C@H](Cc2ccccc2)[C@@H](O)C(=O)O)nn1Cc1ccc(-c2ccccc2C(=O)O)c(F)c1F` [Example 9-7, 4′-[3-((1R,2R)-1-Benzyl-2-carboxy-2-hydroxyethylcarbamoyl)-5-propylpyrazol-1-ylmethyl]-2′,3′-difluorobiphenyl-2-carboxylic acid], the IC50 in test [1] was at most 100 nM. Moreover, the Ki in test [2] was at most 100 nM.

Consider `CCCc1cc(C(=O)N[C@@H](CC(=O)O)Cc2ccccc2)nn1Cc1ccc(-c2ccccc2S(=O)(=O)NC(C)=O)cc1` [Example 6-28, (R)-3-{[1-(2′-Acetylsulfamoylbiphenyl-4-ylmethyl)-5-propyl-1H-pyrazole-3-carbonyl]amino}-4-phenylbutyric acid], for which the IC50 in test [1] is at most 10000 nM. Besides, the Ki in test [2] is at most 10 nM.

In the case of `CCCc1cc(C(=O)NC(CC(=O)NO)CC(C)C)nn1Cc1ccc(-c2ccccc2S(=O)(=O)NC(C)=O)c(F)c1` (stereo not shown) [Example 6-21, 1-(2′-Acetylsulfamoyl-2-fluorobiphenyl-4-ylmethyl)-5-propyl-1H-pyrazole-3-carboxylic acid (1-hydroxycarbamoylmethyl-3-methylbutyl)amide], the IC50 in test [1] was at most 100 nM. In addition, in test [2], the Ki was at most 10 nM.

Consider `CCCc1cc(C(=O)N[C@H](Cc2ccccc2)[C@@H](O)C(=O)O)nn1Cc1ccc(-c2ccccc2S(=O)(=O)NC(C)=O)c(F)c1` [Example 6-7, (2R,3R)-3-{[1-(2′-Acetylsulfamoyl-2-fluorobiphenyl-4-ylmethyl)-5-propyl-1H-pyrazole-3-carbonyl]amino}-2-hydroxy-4-phenylbutyric acid], for which the IC50 in test [1] is at most 100 nM. For the same molecule, in test [2], the Ki is at most 10 nM.

On to `CCCc1cc(C(=O)N[C@H](Cc2ccccc2)[C@@H](O)C(=O)O)nn1Cc1cnc(-c2ccccc2-c2nnn[nH]2)cn1` [Example 17-3, (2R,3R)-3-(1-((5-(2-(1H-tetrazol-5-yl)phenyl)pyrazin-2-yl)methyl)-5-propyl-1H-pyrazole-3-carboxamido)-2-hydroxy-4-phenylbutanoic acid], for which the IC50 in test [1] was at most 100 nM. The Ki in test [2] was at most 10 nM.

`CCCc1cc(C(=O)N[C@@H](CS)Cc2ccccc2)nn1Cc1ccc(-c2ccccc2-c2nnn[nH]2)c(F)c1` [Example 3-11, 1-((2-Fluoro-2′-(1H-tetrazol-5-yl)biphenyl-4-yl)methyl)-N-((R)-1-mercapto-3-phenylpropan-2-yl)-5-propyl-1H-pyrazole-3-carboxamide]: the IC50 in test [1] is at most 100 nM. Moreover, in test [2], the Ki was at most 10 nM.

Take `CCCc1cc(C(=O)N[C@H](Cc2ccccc2)[C@@H](O)C(=O)O)nn1Cc1ccc(-c2ccccc2S(=O)(=O)NC(=O)CCOC)cc1` [Example 7-17, (2R,3R)-2-Hydroxy-3-({1-[2′-(3-methoxy-propionylsulfamoyl)biphenyl-4-ylmethyl]-5-propyl-1H-pyrazole-3-carbonyl}amino)-4-phenylbutyric acid]: in test [1], the IC50 is at most 100 nM. The Ki in test [2] was at most 10 nM.

As for `CCCc1cc(C(=O)N[C@@H](CC(=O)O)Cc2ccccc2F)nn1Cc1ccc(-c2ccccc2-c2nnn[nH]2)nc1` [Example 12, (R)-4-(2-Fluorophenyl)-3-[(5-propyl-1-{6-[2-(1H-tetrazol-5-yl)phenyl]pyridin-3-ylmethyl}-1H-pyrazole-3-carbonyl)amino]butyric acid], the IC50 in test [1] was at most 100 nM. For the same molecule, the Ki in test [2] was at most 10 nM.
